The subject of one data set is acetaminophen overdose. The following applies: cited from earlier work; for protection in acetaminophen overdose: Prescott et al.; for protective action: animals.
Data set [1] relates to acetaminophen bioactivation. The following applies: cited from earlier work.
Data set [2] deals with acetaminophen-induced hepatotoxicity. Briefly: animal or person. The source says: Blood samples were obtained from the jugular vein of CO2 -anesthetizedanimals. The blood was allowed to clot at room temperature and serum was separated by centrifugation. […] Biochem. Biophys.
Randomly-selected samples of the major hepatic lobe were fixed in 10% buffered formalin for histological evaluation. Samples were subsequently embedded in Paraplast (Fisher Scientific) and sectioned at 6 μm on a rotary microtome. Tissue sections were stained with hematoxylin-eosine-phloxine for examination. Extent of tissue damage was determined using a Presage CV-6 Image Analysis System (Advanced Imaging Concepts, Inc.). Images of randomly-selected slides (3 slides/animal, 2-3 animals/group) containing full cross sections of the major hepatic lobe were projected onto a computer screen and the image captured. The areas of damage were then outlined on the screen and the areas quantated using interactive software. The area of damage was shown as a percentage of the total hepatic area for each section. All determinations were made without knowledge of treatment group.
Data were analyzed by the Newman-Keuls multiple comparison procedure on the rank score analysis.
All experiments were replicated at least once.
As a Comparative Example, 300 mg/kg N-acetylcysteine was also administered immediately after administration of 0.2 g/kg acetaminophen.
As a Comparative Example, 300 mg/kg N-acetylcysteine was also administered 1 hour after administration of 0.2 g/kg acetaminophen.

A further data set deals with hepatotoxicity. The following applies: cited from earlier work.
In data set [3] the test system is acetaminophen-induced hepatotoxicity. Briefly: Protective effect against acetaminophen overdose in rats (serum GPT, LDH, liver damage). The data set is classed as in vivo, rat (male Fisher 344). The method, then: Brady et al., "Effect of […] […] Biochem. […] Extent of tissue damage was determined using a […]-6 Image Analysis System (Advanced Imaging Concepts, Inc.). […] All determinations were made without knowledge of treatment group. […] All experiments were replicated at least once.

Another data set relates to P-450 1A2. Briefly: Hepatic microsomal ethoxyresorufin (EORR) dealkylase activity after a single oral dose in mice. The data set is classed as in vivo, mouse. The method, then: (§1) Biochem. Biophys. 238:42-48 (1985).
(§2) In Example 3, this effect was studied in mice. In Example 3, changes in hepatic monooxygenase enzymes after a single oral dose of DASO2 were studied. DASO2 (50 mg/kg) was administrated to mice intragastrically and sacrificed at the indicated time. Control (0 time) mice received distilled water only.
(§3) Hepatic microsomal NDMA demethylase activity (O) is expressed as nmol HCHO produced/min/mg. Pentoxyresorufin ([ ]) and ethoxyresorufin dealkylase activities are expressed as pmol resorufin produced/min/mg. Each point represents the mean ±S.D. of five separate microsomal preparations. *p<0.05 compared to control.

For data set [4], the system named is P-450 2E1. The following applies: cited from earlier work.
Data set [5] relates to P-450 2E1. Briefly: Hepatic microsomal NDMA demethylase activity after a single oral dose in mice. The data set is classed as in vivo, mouse. The following applies: for NDMA demethylase activity, % of the control level: 50 mg/kg single oral dose. The method, then: as §1, §2, §3
Where [6] appears, read: orally less than 24 hours after the overdose.
The mark [7] stands for this setting: APAP only, 0.2 g/kg oral, fasted mice, 24 h.
[8] abbreviates: 300 mg/kg oral, 1 hour after APAP 0.2 g/kg.
The mark [9] stands for this setting: 300 mg/kg oral, immediately after APAP 0.2 g/kg.
Setting [10] is: 50 mg/kg oral, 3 hours after APAP 0.4 g/kg.
[11] abbreviates: 600 mg/kg oral, 1 hour after APAP 0.4 g/kg.
[12] abbreviates: 600 mg/kg oral, 6 hours after APAP 0.4 g/kg.
Setting [13] is: 5 mg/kg oral, immediately (0 min) after APAP 0.2 g/kg.
The mark [14] stands for this setting: 10 mg/kg oral, 20 min after APAP 0.2 g/kg.
The mark [15] stands for this setting: 25 mg/kg oral, 20 min after APAP 0.2 g/kg.
Where [16] appears, read: 25 mg/kg oral, 1 hour after APAP 0.2 g/kg.
Setting [17] is: 25 mg/kg oral, immediately (0 min) after APAP 0.2 g/kg.
Setting [18] is: 50 mg/kg oral, immediately (0 min) after APAP 0.2 g/kg.
Setting [19] is: 5 mg/kg oral, 1 h after APAP 0.4 g/kg.
Setting [20] is: 5 mg/kg oral, 3 hours after APAP 0.4 g/kg.
The mark [21] stands for this setting: 15 mg/kg oral, 1 h after APAP 0.4 g/kg.
Where [22] appears, read: 50 mg/kg oral, 1 hour after APAP 0.4 g/kg, mean ± SD of five rats.
[23] abbreviates: 50 mg/kg oral, 6 hours after APAP 0.4 g/kg.

Where “and” joins values, the source holds several entries; their conditions need not be identical. Equal entries are not always repeated. Entries after “also recorded” stand apart in the source; their conditions may differ. Where two headings read alike, the source gives them in different places.

Take `CSCC[C@H](N)C(=O)O` [L-methionine]: in the data set with acetaminophen overdose, the “protection in acetaminophen overdose” value is given as “some protection” and the protective action entry is reported as “protective action”. Besides, in the data set with acetaminophen overdose (setting [6]), the “effectiveness in acetaminophen overdose” value is given as “effective”.

Turning to `N[C@@H](CS)C(=O)O` [L-cysteine], the protective action entry in the data set on acetaminophen overdose is recorded as “protective action”. In the data set with acetaminophen overdose (setting [6]), the “effectiveness in acetaminophen overdose” value is listed as “effective”.

Regarding `CN/C(=N/CCSCc1nc[nH]c1C)NC#N` [cimetidine], in data set [1], the “inhibition of acetaminophen bioactivation” value (shortened to “inhibition”) was “inhibit acetaminophen bioactivation”.

With `CC(=O)Nc1ccc(O)cc1` [APAP, N-acetyl-p-aminophenol, reference compound], in data set [2] (setting [7]), the “Extent of liver damage” value is given as 26-40%, the LDH worked out at 17227 ± 3464 U/L and the Survival is on record as 2/5. Further, the “increase of serum LDH” value in data set [2] (acetaminophen 0.2 g/kg, mice) is given as 20 fold. Also, the liver histology result in data set [2] (acetaminophen 0.2 g/kg, surviving mice (FIG. 2B)) was “hepatocellular necrosis; also recorded: typical centrilobular degeneration, necrosis, and inflammation”. Moreover, in the data set on hepatotoxicity (4 hours after ingestion), the “plasma acetaminophen level always associated with hepatic damage” value is on record as “greater than 300 mcg/ml”. Moreover, the “plasma acetaminophen level always associated with hepatic damage” value in the data set with hepatotoxicity (12 hours after ingestion) is “greater than 50 mcg/ml”. In addition, the fatalities result in the data set with hepatotoxicity (acute overdoses of less than 15 g) is “rare”. Further, the “single dose after which hepatotoxicity may occur” value in the data set with hepatotoxicity (in vivo) is on record as 7.5 to 10 g. The “plasma acetaminophen half-life above which hepatic necrosis is likely” value in the data set on hepatotoxicity (overdose) was “exceeds 4 hours”.

`CCO` [ethanol]: in data set [1], the “inhibition” value is “inhibit acetaminophen bioactivation”.

Consider `CC(=O)N[C@@H](CS)C(=O)O` [N-AC, N-acetyl-L-cysteine, reference compound], for which the “Extent of liver damage” value in data set [2] (setting [8]) is 10-17%; in data set [2] (setting [9]) it was 0%; in data set [3] (setting [10]) it was 17-38%; in data set [3] (setting [11]), 1-5%; in data set [3] (setting [12]), 13-28%. The GPT was 131 ± 68 U/L in data set [2] (setting [8]); 56 ± 4 U/L in data set [2] (setting [9]); 135 ± 40 U/L in data set [3] (setting [10]); 47 ± 4 U/L in data set [3] (setting [11]); 153 ± 62 U/L in data set [3] (setting [12]). In addition, the LDH in data set [2] (setting [8]) stood at 1140 ± 96 U/L; in data set [2] (setting [9]), 629 ± 124 U/L; in data set [3] (setting [11]), 174 ± 35 U/L; in data set [3] (setting [12]), 269 ± 92 U/L. Besides, the Survival in data set [2] (setting [8]) and in data set [2] (setting [9]) was 5/5 in each case. Also, in data set [2] (300 mg/kg, 1 hour after acetaminophen, mice), the protection against hepatotoxicity result is “partial protection”. Also, in data set [2] (300 mg/kg, immediately after acetaminophen, mice), the “protection against acetaminophen toxicity” value is on record as “protected against acetaminophen toxicity”. The “effectiveness against acetaminophen toxicity” value in data set [2] (3 hours after acetaminophen dosing, mice (data not shown)) is on record as “neither DASO2, N-AC nor the combination treatment was effective”. In addition, the “prevention of liver necrosis and GPT elevation” value in data set [3] (50 mg/kg, 3 hours after APAP, rats) is “partially prevented the development of liver necrosis and the elevation of the GPT level”. In data set [3] (600 mg/kg, 1 hr after APAP, compared with DASO2 50 mg/kg, rats), the “protection against liver toxicity” value is reported as “as effective as DASO2 (50 mg/kg) in preventing liver toxicity”. For the same molecule, in data set [3] (600 mg/kg, 6 hours after APAP, rats), the protection result was “partial protection”. Moreover, in data set [3] (N-acetylcysteine dose versus DAS and DASO2 dose), the “dosage needed for similar protection relative to DAS / DASO2” value was “more than ten-fold higher”. Moreover, the protective action result in the data set on acetaminophen overdose was “protective action”. For the same molecule, the “effectiveness in acetaminophen overdose” value in the data set with acetaminophen overdose (given orally) and in the data set with acetaminophen overdose (setting [6]) was “effective” in each case.

`C=CCS(=O)(=O)CC=C` [DASO2, diallyl sulfone]: the “Extent of liver damage” value in data set [2] (setting [13]) was 3-5%; in data set [2] (setting [16]), 3-10%; in data set [2] (setting [17]), 5-10%; in data set [2] (setting [18]), 4-9%; in data set [3] (setting [20]), 23-38%; in data set [3] (50 mg/kg oral, 1 hour after APAP 0.4 g/kg) it was 0-5%. Besides, the “Extent of liver damage” value in data set [3] (setting [10]) is listed as 4-8%; in data set [3] (setting [23]), 21-40%. Also, the GPT in data set [2] (setting [13]) is 51 ± 8 U/L; in data set [2] (setting [14]), 212 ± 1 U/L; in data set [2] (setting [15]), 89 ± 13 U/L; in data set [2] (setting [16]), 110 ± 70 U/L; in data set [2] (setting [17]) it was 66 ± 18 U/L and 84 ± 37 U/L; in data set [2] (setting [18]) it was 79 ± 5 U/L. Also, the GPT was 162 ± 27.3 U/L in data set [3] (setting [19]); 139 ± 46 U/L in data set [3] (setting [20]); 52 ± 8.2 U/L in data set [3] (setting [21]); 48 ± 9 U/L and 48 ± 9.6 U/L in data set [3] (setting [22]); 133 ± 64 U/L in data set [3] (setting [10]); 182 ± 47 U/L in data set [3] (setting [23]). Besides, the LDH in data set [2] (setting [13]) is 433 ± 98 U/L; in data set [2] (setting [14]), 16639 ± 8578 U/L; in data set [2] (setting [15]), 648 ± 231 U/L; in data set [2] (setting [16]) it was 1340 ± 1568 U/L; in data set [2] (setting [17]), 611 ± 252 U/L; in data set [2] (setting [18]), 772 ± 1138 U/L and 772 ± 138 U/L. The LDH in data set [3] (setting [19]) was 377 ± 71 U/L; in data set [3] (setting [21]), 222 ± 44 U/L; in data set [3] (setting [22]), 279 ± 50 U/L and 279 ± 41 U/L; in data set [3] (setting [10]), 315 ± 120 U/L; in data set [3] (setting [23]), 375 ± 111 U/L. In addition, the Survival in data set [2] (setting [13]), in data set [2] (setting [14]), in data set [2] (setting [15]), in data set [2] (setting [16]), in data set [2] (setting [17]) and in data set [2] (setting [18]) was 5/5 each time. The ED (maximal) in data set [2] (Mus musculus, read-out: dose sufficient to produce maximal protection) came to 5 mg/kg. Further, the minimal effective dose in data set [2] (Mus musculus, read-out: low dose at which protective effect was demonstrated) came to 5 mg/kg; in data set [3] (Rattus norvegicus, rats, read-out: low dose at which protective effect was demonstrated) it was 5 mg/kg. For the same molecule, the “Extent of liver necrosis (grade)” value stood at 1 in data set [3] (setting [19]); 1 in data set [3] (setting [21]); 0 in data set [3] (50 mg/kg oral, 1 h after APAP 0.4 g/kg); 1 in data set [3] (50 mg/kg oral, 3 h after APAP 0.4 g/kg); 2 in data set [3] (50 mg/kg oral, 6 h after APAP 0.4 g/kg). In addition, the “ethoxyresorufin (EORR) dealkylase activity, % of control level” value in the data set on P-450 1A2 (50 mg/kg single oral dose, 0.5 hours) is 79%; in the data set with P-450 1A2 (50 mg/kg single oral dose, 1 hour) it was 39%; with P-450 1A2 (50 mg/kg single oral dose, 3 hours), 52%; with P-450 1A2 (50 mg/kg single oral dose, 6 hours) it was 46%. Also, the EORR dealkylase activity entry with P-450 1A2 (50 mg/kg single oral dose, after 15 hours) is reported as “returned to control levels”. Moreover, the “hepatic cytochrome P-450 1A2 activity” value with P-450 1A2 (oral administration, mice) is given as “rapid decreases”. The “liver microsomal NDMA demethylase activity” value in the data set on P-450 2E1 [4] (200 mg/kg, rats) is on record as “marked decrease”. Moreover, in the data set with P-450 2E1 [4] (treatment of rats), the “liver microsomal P-450 2E1-dependent (NDMA demethylase) activity” value is “decreased”. Further, the “NDMA demethylase activity, % of the control level” value turned out to be 31% in the data set with P-450 2E1 [5] (0.5 hours), 54% with P-450 2E1 [5] (1 hour), 49% with P-450 2E1 [5] (3 hours) and 73% in the data set with P-450 2E1 [5] (6 hours). Besides, the “hepatic cytochrome P-450 2E1 activity” value in the data set on P-450 2E1 [5] (oral administration, mice) is given as “rapid decreases”.

On to `NCCS` [cysteamine], for which the “protection in acetaminophen overdose” value with acetaminophen overdose is recorded as “some protection”.

Regarding `C[S+](C)[O-]` [dimethyl sulfoxide], the “inhibition” value in data set [1] is given as “inhibit acetaminophen bioactivation”.

(Values after patent US5474757A, “Prevention of acetaminophen overdose toxicity with organosulfur compounds” (priority 1992, dated 1995).)
